Reference: patent US20250114337A1, “METHODS FOR VASCULAR REGENERATION AND WOUND TREATMENT” (THE METHODIST HOSPITAL, priority 2022, published 2025)
“Also recorded” adds a separate entry of the source. Where two headings read alike, the source gives them in different places.

Columns and labels:
[1] = test system: ischemic hindlimb mice model; assay: hindlimb ischemia recovery in WT C57BL/6 mice, laser doppler imaging; format: in vivo, mouse; conditions: TMG 10 mg/kg 0, 1, 2 days post-surgery; older mice (around 20 weeks)
Method: O-GlcNAcylation manipulations regulated recovery from tissue ischemia. To determine if the change in O-GlcNAcylation can modulate limb ischemia recovery, and contributes to vascular recovery, WT C57BL/6 mice were treated with the O-GlcNAcylation inhibitor, OSMI4, or O-GlcNAcylation enhancer, TMG 0, 1, 2 days post-surgery. Age is an important factor that determines recovery, and younger mice are known to have a more robust angiogenic response as compared with older mice. Accordingly, younger mice (between 8 to 12 weeks) were used to assess the impairment of angiogenesis by OSMI (which reduces O-GlcNAcylation). Older mice (around 20 weeks) were used to assess the enhancement of angiogenesis by TMG (which increases O-GlcNAcylation). […] It will be determined whether this beneficial effect is mediated by increased DNA accessibility and enhanced transdifferentiation.
To determine if O-GlcNAcylation manipulations can modulate the overall effect of vascular recovery from limb ischemia. WT C57BL/6 mice were treated with the O-GlcNAcylation inhibitor. OSMI4 (10 mg/kg), or O-GlcNAcylation enhancer. TMG (10 mg/kg) 0, 1, 2 days post-surgery (FIG. 19A).

[2] = test system: ischemic hindlimb model; assay: ischemic hindlimb model in fibroblast lineage tracing Fsp1-Cre: R26R-EYFP mice; format: in vivo, mouse; conditions: ischemic hindlimb
Method: Using established transdifferentiation protocol and metabolomics profiling to assess the global metabolic changes during transdifferentiation. […] To determine the role of this metabolite in transdifferentiation, the effect of Thiamet G was assessed, an inhibitor of OGA, which enhances O-GlcNAcylation. Thiamet G increased transdifferentiation efficiency in vitro. In a fibroblast lineage tracing mice, Fsp1-Cre: R26R-EYFP mice, Thiamet G increased tissue O-glycnacylation, increased capillary density and limb perfusion, and increased the number of fibroblasts transdifferentiating into endothelial cells (i.e. FSP+CD31+ cell) in an ischemic hindlimb model.
Angiogenic transdifferentiation in limb ischemia. A fibroblast lineage tracing mouse model (Fsp1-Cre: R26R-EYFP) was used to detect transdifferentiation in vivo in a murine model of limb ischemia (Meng, S., et al., Circulation, 2020. 142 (17): p. 1647-1662). […] This population is abolished when the mice are treated with anti-inflammatory drugs, such as dexamethasone. Intriguingly, the disappearance of these cells is associated with a reduction in perfusion recovery and worsening clinical scores. Similar results are achieved when inflammatory signaling is impaired, as in Fsp1-Cre: Rela flox/flox mice. In these animals, NFκB signaling is blocked in the Fsp1+fibroblasts, associated with a dramatic reduction in transdifferentiated fibroblasts (i.e. YFP+CD144+ cells), and impaired perfusion (Meng. S., et al., Circulation, 2020. 142 (17): p. 1647-1662). […] Cluster 8 produced angiogenic cytokines, whereas Cluster 5 expressed genes associated with EC identity (i.e CD144). But only Cluster 5 could generate EC-like networks in Matrigel whereas other fibroblasts, including Cluster 8 fibroblasts, formed nodal structures typical of fibroblasts in Matrigel. The data support the idea that transdifferentiation may occur in vivo with tissue ischemia, and is dependent on inflammatory signaling. This model can be used to study the contribution of O-GlcNAcylation in transdifferentiation and limb ischemia recovery in vivo. A similar lineage tracing approach can be used with tamoxifen-inducible Col1A2-Cre/ERT: R26R-tdTomato mouse strain to study the contribution of O-GlcNAcylation in transdifferentiation and limb ischemia recovery in vivo.
To determine if O-GlcNAcylation enhances revascularization through transdifferentiation, fibroblasts lineage tracing Fsp1-Cre: R26R-EYFP mice strain were utilized where it was previously observed the in situ transdifferentiation phenomenon (FIG. 20A). In this model, all the fibroblasts expressing Fsp1 (fibroblast-specific protein1) are marked with YFP. With this model, a significant increase in the FSP-expressing cell progeny in the ischemic limb was identified compared with the sham-operated limb 3 days after the femoral artery ligation was perform (FIG. 20A) and compare the YFP+ cells over the different time points (FIG. 20A). The percentage of the YFP+CD31+CD11b-cell population which is considered the transdifferentiation population was analyzed further. […] To determine the role of the O-GlcNAcylation on the transdifferentiation, the Fsp1-Cre: R26R-EYFP mice that are undergoing vascular recovery with OSMI were treated, and the transdifferentiation population in the limb muscle tissue 7 days post-surgery was analyzed.

[3] = test system: BJ fibroblasts; assay: in vitro transdifferentiation of fibroblasts to induced endothelial cells (iECs); format: cell-based, human; conditions: fibroblasts exposed during transdifferentiation protocol
Source text: Innate immune activation is required for transdifferentiation. […] 131 (3): p. 300-9). iECs generated from this protocol manifest high fidelity for endothelial lineage. They incorporate acetylated LDL (FIG. 2B), form tubular networks (FIG. 2C), have similar transcriptomes as genuine endothelial cells, and increase capillary density and perfusion when injected into the ischemic hindlimb of the mouse (FIG. 2D) (Sayed, N., et al., Circulation, 2015. 131 (3): p. 300-9). This protocol can be utilized to study the role of O-GlcNAcylation in transdifferentiation in vitro.
O-GlcNAcylation is required for in vitro transdifferentiation. To define if the elevation of O-GlcNAcylation is required for transdifferentiation, fibroblasts were exposed to Thiamet G (TMG) (an OGA inhibitor that enhances O-GlcNAcylation) or DON (an inhibitor for GFAT that acts upstream in the hexosamine biosynthesis pathway and reduces O-GlcNAcylation). The number of iECs generated during transdifferentiation is increased when fibroblasts are exposed to TMG and decreased when exposed to DON (FIG. 5A). […] The role of O-GlcNAcylation of specific epigenetic regulars e.g., HIRA during transdifferentiation can also be addressed.
To define if the elevation of O-GlcNAcylation is required for transdifferentiation, inhibitors of O-GlcNAcylation including OSMI (an inhibitor for OGT) and DON (an inhibitor for GFAT that acts upstream in the hexosamine biosynthesis pathway and reduces O-GlcNAcylation) or an activator of O-GlcNAcylation. Thiamet G (TMG) (an OGA inhibitor that enhances O-GlcNAcylation), were delivered to BJ fibroblasts undergoing transdifferentiation. The number of CD31 expressing iECs generated during transdifferentiation decreases when exposed to OSMI or DON and increases when fibroblasts are exposed to TMG (FIG. 17B). Then OGT or OGA were knocked down using shRNA in the BJ fibroblasts (FIG. 17C) and performed transdifferentiation protocol in vitro.

[4] = test system: BJ fibroblasts; conditions: PolyI:C alone, without endothelial growth factors; cited from earlier work
[5] = test system: accessible chromatin; assay: ATAC seq chromatin accessibility in fibroblasts; format: cell-based
Source text: Chromatin accessibility mapping is a powerful approach to identify sites of open chromatin (i.e. to infer sites of active transcription). In ATAC-seq, a Tn5 transposase inserts sequencing adapters into accessible DNA (‘tagmentation’). […] In the right panel, exposure of the fibroblasts to polyIC increases the average length (KB) of open chromatin.
Identify the role of O-GlcNAcylation in DNA accessibility. […] However, it is unknown if this occurs during transdifferentiation of fibroblasts to iECs. […] To test if O-GlcNAcylation controls this process.

[6] = test system: H3.3 deposition; assay: H3.3-SNAP tagging, quench-chase-pulse TMR-Star labeling; format: cell-based; conditions: vs control
Source text: To identify the role of O-GlcNAcylation of histone variant h3.3 chaperone protein, HIRA, on transdifferentiation. The effects of O-GlcNAcylation on proteins that may be involved in the epigenetic regulation of transdifferentiation can be assessed. Nucleosome turnover is known to be tightly interrelated with DNA accessibility, and histone variant h3.3 is a hallmark of regulatory regions in the mammalian genome and is required to establish open chromatins. HIRA is the chaperone for h3.3, it forms a complex with other subunits, including ASF1. UBN, and CABIN, and is responsible for h3.3 deposition on the chromatin. OGT interacts with and O-GlcNAcylates HIRA, both of which are critical for the formation of the HIRA-h3.3 complex and h3.3 deposition and its dependent gene activation. […] The role of HIRA in transdifferentiation with fibroblasts that have HIRA knocked down or overexpressed can be determined. […] Thereafter, the de novo deposited SNAP-h3.3 will be pulse-labeled with the TMR-Star, which is a readily detectable and quantifiable red-fluorescent substrate. […]
To test whether innate immune activation enhances the H3.3 deposition in the chromatin, the H3.3-SNAP tagging system was generated where the newly synthesized H3.3 will be detected by fluorescent TMR-Star labeling with quench-chase-pulse strategy.

[7] = test system: O-GlcNAcylated proteins; assay: Click-it O-GlcNAc enzymatic labeling and detection assay; format: cell-based; conditions: 3 days vs vehicle, nuclear, cytoplasmic, whole-cell lysates
Method: (§1) Cellular O-GlcNAcylation is elevated during transdifferentiation. […] TLR3 activation increases DNA accessibility and facilitates transdifferentiation. Other forms of inflammatory activation also increase DNA accessibility (as with RIG1 activation). […] To determine if the increase in UDP-GlcNAc is associated with an increase in O-GlcNAcylation, cells were treated with PolyI:C or vehicle for 3 days, then the O-GlcNAcylated proteins in the nuclear (N), cytoplasmic (C), or whole-cell (W) lysates were enzymatically labeled with azido-modified galactose (GalNAz), which were further detected by click-it chemistry using a biotinylated alkyne and Western.
To determine if the increase in UDP-GlcNAc is associated with an increase in O-GlcNAcylation, cells were treated with Poly I:C or vehicle for 3 days, then the O-GlcNAcylated proteins in the nuclear (N), cytoplasmic (C), or whole-cell (W) lysates were enzymatically labeled with azido-modified galactose (GalNAz), which were further detected by click-it chemistry using a biotinylated alkyne and Western.

[8] = test system: MEFs; conditions: Chanda et al. 2019; cited from earlier work
[9] = test system: HIRA-H3.3 complex; assay: immunoprecipitation using HIRA antibody; format: cell-based; conditions: after Poly I:C treatment
Source text: The histone variant h3.3 is a replacement for its canonical form of h3.1 and h3.2 in the nucleosome. Its deposition is usually associated with transcription activation and enhanced DNA accessibility. The complex that is responsible for h3.3 deposition is called HIRA complex which consists of HIRA. UBN, and cabin as the histone chaperone proteins. The HIRA O-GlcNAcylation is known to be critical for its function in H3.3 deposition. During the vascular recovery in the WT mice, the level of HIRA complex subunits, including ASFIA. HIRA. UBN, as well as the H3.3 deposition are increased (FIG. 22A). The HIRA-H3.3 pathway in the fibroblast progeny cells is activated, especially in the limbs recovering from ischemia 3- and 7-days post-surgery compared with the non-YFP+ cells (FIG. 22B). […] An in vitro system to test whether the HIRA-H3.3 pathway is activated during transdifferentiation was used.

[10] = test system: UDP-GlcNAc; assay: LC-MS-based metabolomic analysis of fibroblasts undergoing transdifferentiation; format: cell-based, human; conditions: 30 ng/ml Poly I:C with induction medium, 0, 1, 3 days
Method: as §1
To profile the global metabolic changes during transdifferentiation, untargeted metabolomics with BJ human fibroblast cells undergoing transdifferentiation protocol was performed and treated with 30 ng/ml Poly I:C with the induction medium for 0, 1, and 3 days. Over 100 metabolites were identified from the LC-MS-based metabolomic analysis. […] UDP-GlcNAc is the substrate for O-GlcNAcylation and is the end-product of the hexosamine biosynthesis pathway (HBP).

Compound | recovery of blood flow post femoral artery ligation (revascularization) [1] | capillary density [2] | limb perfusion [2] | number of fibroblasts transdifferentiating into endothelial cells (FSP+CD31+ cell) [2] | tissue O-glycnacylation [2] | iEC yield (number of CD31 expressing iECs generated during transdifferentiation) [3] | iEC yield (number of CD31 expressing iECs generated during transdifferentiation) ([3]; listed as Thiamet G) | transdifferentiation of fibroblasts to endothelial cells [4] | chromatin accessibility (open chromatin around TSS) [5] | chromatin accessibility (open chromatin around TSS) ([5]; listed as polyIC) | H3.3 deposition [6] | O-GlcNAcylation [7] | O-GlcNAcylation ([7]; listed as Poly I:C) | DNA accessibility [8] | HIRA interaction with UBN and H3.3 [9] | UDP-GlcNAc level [10] | UDP-GlcNAc level ([10]; listed as Poly I:C)
CCNC1=NC2C(OC(CO)C(O)C2O)S1 (stereo not drawn) [TMG, 2-(ethylamino)-5-(hydroxymethyl)-5,6,7,7a-tetrahydro-3aH-pyrano[3,2-d][1,3]thiazole-6,7-diol] | enhanced recovery; also recorded: enhances | increased | increased | increased | increased | increases | increased | – | – | – | – | – | – | – | – | – | –
Polyinosinic:polycytidylic acid [PolyI:C] | – | – | – | – | – | – | – | does not occur | more accessible chromatin regions | increases | enhances | elevation primarily occurs in nuclear proteins; also recorded: augmentation | elevation | enhances | enhanced | highly elevated; also recorded: up-regulated | consistently increases
[N-]=[N+]=CC(=O)CC[C@H](N)C(=O)O [DON] | – | – | – | – | – | decreases; also recorded: impair | – | – | – | – | – | – | – | – | – | – | –
